System: HER2
Experiment: Degradation of HER2 in cells, Method 1 (SDS-PAGE / immunoblot)
Assay type: cell-based
Settings: BT-474 cells, 0.5 μM, overnight in DMEM medium
Method: BT-474 cells are treated with 0.5 μM, 2 μM, or 5 μM of 17-AAG (a positive control) or 0.5 μM, 2 μM, or 5 μM of an Hsp90-targeting moiety or conjugate of the invention overnight in DMEM medium. After treatment, each cytoplasmic sample is prepared from 1×10^6 cells by incubation of cell lysis buffer (#9803, Cell Signaling Technology) on ice for 10 minutes. The resulting supernatant used as the cytosol fractions is dissolved with sample buffer for SDS-PAGE and run on a SDS-PAGE gel, blotted onto a nitrocellulose membrane by using semi-dry transfer. Non-specific binding to nitrocellulose is blocked with 5% skim milk in TBS with 0.5% Tween at room temperature for 1 hour, then probed with anti-HER2/ErB2 mAb (rabbit IgG, #2242, Cell Signaling) and anti-Tubulin (T9026, Sigma) as housekeeping control protein. HRP-conjugated goat anti-rabbit IgG (H+L) and HRP-conjugated horse anti-mouse IgG (H+L) are used as secondary Ab (#7074, #7076, Cell Signaling) and LumiGLO reagent, 20× Peroxide (#7003, Cell Signaling) is used for visualization. The Hsp90 client protein HER2 is degraded when cells are treated with Hsp90-targeting moieties or SDC-TRAPs of the invention.

C=CCNC1=C2C[C@@H](C)C[C@H](OC)[C@H](O)[C@@H](C)/C=C(\C)[C@H](OC(N)=O)[C@@H](OC)/C=C\C=C(/C)C(=O)NC(=CC1=O)C2=O [17-AAG]
degradation of HER2: partial degradation
